Patent US20090099240A1, “METHODS FOR TREATING ENERGY METABOLISM DISORDERS BY INHIBITING FATTY ACID AMIDE HYDROLASE ACTIVITY” (N.V. Organon, priority 2006, published 2009)

Experiments:
[1] = test system: APOE*3-Leiden transgenic (E3L) mice; assay: Lipid content of liver (TLC) in E3L mice; type: in vivo, mouse
Text: (§1) E3L mice were fed a high cholesterol (1% w/w) diet (HC diet) for a period of four weeks. Animals were then matched based on their plasma cholesterol levels, and were divided into five groups, each of which was maintained on an HC diet.
A reduction of Red Oil O staining in liver generally indicates reduced liver lipid content. We therefore quantified levels of lipids in livers from each animal, as described in Havekes et al. (1987), Biochem. J., 247:739-746; Delsing et al. (2005), J. Cardiovasc. Pharmacol., 45:53-60; and Post et al. (2004), ATVB, 24:768-774. Liver tissue homogenates were prepared. Lipids were extracted, dried under nitrogen, dissolved in chloroform, and spotted onto a channeled 20×20 cm silica gel thin layer chromatography (TLC) plate. Lipids were then separated, TLC plates were warmed up to visualize bands, and bands were quantified using an internal standard as reference.

[2] = test system: APOE*3-Leiden transgenic (E3L) mice; assay: Total plasma cholesterol in E3L mice; type: in vivo, mouse
Text: (§2) We assessed the effect of inhibiting FAAH activity on body weight, body fat, triglyceride levels, cholesterol levels in APOE*3-Leiden transgenic (E3L) mice, an animal model of hyperlipidemia. […] See van Vlijmen et al. (1994), J. Clin Invest., 93:1403-1410. Indeed, upon high fat and cholesterol feeding, these mice develop various stages of atherosclerotic lesions depending on plasma total cholesterol levels and resembling those found in humans. See Groot et al. (1996), Arterioscler. Thromb. Vasc. Biol., 16:926-933; Versch ren et al. (2005), Arterioscler. Thromb. Vasc Biol., 25:161-167; and Lutgens et al. (1999), Circulation; 99(2):276-283). Thus, the E3L mouse is a suitable model for the investigation of the efficacy of anti-atherosclerotic drugs.
as §1
(§3) Blood samples were collected at days 0, 14, and 28 of the treatment period. At the end of the treatment period, animals were sacrificed, and various tissues and organs were analyzed. Unless otherwise indicated, values are mean±standard deviation (SD).

[3] = test system: APOE*3-Leiden transgenic (E3L) mice; assay: Oil Red O staining of liver sections (steatosis) in E3L mice; type: in vivo, mouse; conditions: compared to the control vehicle group
Text: as §1
In order to examine cellular stress in the liver due to lipid storage (steatosis), we stained frozen liver tissue sections with Oil Red O a fat-soluble diazo dye used to stain for lipids. Digital photomicrographs of liver cross sections were taken for each individual animal (magnification: 20 fold). […]

[4] = test system: APOE*3-Leiden transgenic (E3L) mice; assay: Plasma adiponectin ELISA in E3L mice; type: in vivo, mouse
Text: as §1
We determined plasma adiponectin levels after a four hour fasting period at 0, 14, 28 days, using a mouse-specific adiponectin/Acrp30 ELISA (kit number MRP300 from R&D Systems, Minneapolis, Minn.).

[5] = test system: APOE*3-Leiden transgenic (E3L) mice; assay: Total plasma triglyceride levels in E3L mice; type: in vivo, mouse
Text: as §2, §1, §3

[6] = test system: APOE*3-Leiden transgenic (E3L) mice; assay: Food intake per animal per day in E3L mice; type: in vivo, mouse
Text: as §2, §1

[7] = test system: APOE*3-Leiden transgenic (E3L) mice; assay: Body weight in E3L mice on high cholesterol diet; type: in vivo, mouse
Text: as §2, §1

[8] = test system: APOE*3-Leiden transgenic (E3L) mice; assay: Organ and tissue weights in E3L mice on high cholesterol diet
Text: as §2, §1, §3

[9] = test system: APOE*3-Leiden transgenic (E3L) mice; assay: Plasma alanine aminotransferase (ALAT) activity in E3L mice; type: in vivo, mouse
Experimental: as §1
Levels of plasma alanine aminotransferase (ALAT) were determined on day 28 (table 7). Plasma ALAT is a measure of hepatic stress and increases in plasma ALAT levels are often associated with liver damage. […] Thus, a reduction in plasma ALAT levels is associated with improved liver function.

cynomolgus monkeys = assay: Time course of plasma OEA levels after oral dosing in cynomolgus monkeys; type: in vivo, cynomolgus monkey; conditions: oral 50-1500 mg/kg
Experimental: Afterwards, a time course of plasma OEA levels was determined for each subject by obtaining a plasma sample at 0.5, 1, 2, 4, 8, 12, and 24 hours post-administration.

[10] = test system: APOE*3-Leiden transgenic (E3L) mice; assay: Plasma leptin ELISA in E3L mice; type: in vivo, mouse
Text: as §1
Accordingly, we quantified plasma leptin levels after a four hour fasting period at treatment time points 0, 14, and 28 days using a mouse-specific leptin ELISA or (kit number MOB00 from R&D Systems, Minneapolis, Minn.) according to the guidelines and protocol specified by the manufacturer.

[11] = test system: APOE*3-Leiden transgenic (E3L) mice; assay: Plasma lipoprotein profiles (size fractionation of pooled plasma) in E3L mice; type: in vivo, mouse; conditions: day 28, FIG. 1
Experimental: as §1
Lipoprotein profiles were determined in pooled plasma from day 28, as described in Verschuren et al. (2005), Arterioscler. Thromb. Vasc Biol., 25:161-167. An equal amount of plasma per animal was used to prepare a plasma pool for each group. Plasma lipoproteins in each plasma pool were separated by size fractionation. Typically, VLDL, IDL/LDL and HDL lipoproteins are eluted in fractions 4-8, fractions 11-16 and fractions 17-20, respectively.

[12] = test system: APOE*3-Leiden transgenic (E3L) mice; assay: Plasma ketone body (D-3-hydroxybutyrate) levels in E3L mice; type: in vivo, mouse
Text: as §1
We quantified plasma D-3-hydroxybutyrate (b-HBA; ketone bodies) levels were quantified in plasma samples obtained after a 4-hour fasting period at time points t=0, t=2, and t=4 weeks using kits #2940 (b-HBA reagent set) and #2947 (b-HBA control set)) according to the guidelines and protocol specified by the manufacturer (Instruchemie, Delfzijl, The Netherlands).

[13] = E3L mice, HC diet, end of four-week treatment, mean ± SD

With `NC(=O)c1cccc(-c2cccc(OC(=O)NC3CCCCC3)c2)c1` [KDS-4103] as the molecule, how does the “liver triglycerides (TG), in words” value ([1]; compared to respective control group) read?
Its value is “significantly decreased”.

What about the “liver cholesterol esters (CE), in words” value ([1]; compared to the oral vehicle group) of the same molecule?
The value was “significantly increased”.

What about the “Lipid Content of Liver: Cholesterol Esters” value ([1]; end of four-week treatment) of the same molecule?
The value was “^#59 ± 6”.

What about the “Lipid Content of Liver: Free Cholesterol” value ([1]; end of four-week treatment) of the same molecule?
The value was 22 ± 2.

And the “Lipid Content of Liver: Triglycerides” value ([1]; end of four-week treatment)?
The value was “*64 ± 14”.

And the “Total Plasma Cholesterol” value ([2]; day 0)?
The value was 14.3 ± 3.2 mM.

And the “Total Plasma Cholesterol” value ([2]; day 14)?
Its value is “^#19.1 ± 4.9 mM”.

What about the “Total Plasma Cholesterol” value ([2]; day 28) of the same molecule?
The value was “^#19.5 ± 4.1 mM”.

What about the “total plasma cholesterol levels, in words” value ([2]; days 14 and 28, relative to respective control group) of the same molecule?
The value was “slightly and significantly increased”.

What about the “steatotic (Oil Red O) staining in liver, in words” value [3] of the same molecule?
Its value is “small, but not significant decrease”.

And the Plasma Adiponectin Levels ([4]; day 0, four hour fasting)?
Its Plasma Adiponectin Levels is 10.4 ± 1.9 µg/mL.

What about the Plasma Adiponectin Levels ([4]; day 14, four hour fasting) of the same molecule?
The Plasma Adiponectin Levels was 10.2 ± 2.7 µg/mL.

What about the “Plasma Adiponectin Levels” value ([4]; day 28, four hour fasting) of the same molecule?
Its value is “^#11.9 ± 1.9^ mg/ml”.

What about the “plasma adiponectin level, in words” value ([4]; day 28 as compared to day 0) of the same molecule?
The value was “significantly higher”.

What about the “Total Plasma Triglyceride Levels” value ([5]; day 0) of the same molecule?
The value was 1.5 ± 0.4 mM.

What about the “Total Plasma Triglyceride Levels” value ([5]; day 14) of the same molecule?
The value was 1.9 ± 0.6 mM.

What about the “Total Plasma Triglyceride Levels” value ([5]; day 28) of the same molecule?
The value was 1.9 ± 0.5 mM.

And the “total plasma triglyceride levels, in words” value ([5]; relative to respective control group)?
Its value is “not significantly changed”.

And the “Food Intake Per Animal Per Day” value ([6]; interval 0-0.5 weeks)?
Its value is 2.3 ± 0.1 g.

And the “Food Intake Per Animal Per Day” value ([6]; interval 0.5-1.0 weeks)?
The value was 2.4 ± 0.1 g.

What about the “Food Intake Per Animal Per Day” value ([6]; interval 1.0-1.5 weeks) of the same molecule?
Its value is 2.3 ± 0.2 g.

And the “Food Intake Per Animal Per Day” value ([6]; interval 1.5-2.0 weeks)?
Its value is 2.6 ± 0.1 g.

What about the “Food Intake Per Animal Per Day” value ([6]; interval 2.0-2.5 weeks) of the same molecule?
The value was 2.3 ± 0.3 g.

What about the “Food Intake Per Animal Per Day” value ([6]; interval 2.5-3.0 weeks) of the same molecule?
The value was 2.5 ± 0.1 g.

And the “Food Intake Per Animal Per Day” value ([6]; interval 3.0-3.5 weeks)?
The value was 2.4 ± 0.3 g.

What about the “Food Intake Per Animal Per Day” value ([6]; interval 3.5-4.0 weeks) of the same molecule?
Its value is “*2.0 ± 0.1 g”.

What about the “Food Intake Per Animal Per Day” value ([6]; interval run-in) of the same molecule?
The value was 2.5 ± 0.5 g.

What about the “food intake, in words” value ([6]; last time point) of the same molecule?
The value was “slight, but significant, decrease”.

What about the “body weights, in words” value ([7]; last time point (4 weeks), within group) of the same molecule?
The value was “significantly reduced”.

What about the “Body Weight” value ([7]; week 0) of the same molecule?
Its value is 21.8 ± 1.1 g.

And the “Body Weight” value ([7]; week 0.5)?
Its value is 21.9 ± 1.0 g.

And the “Body Weight” value ([7]; week 1)?
Its value is 21.9 ± 1.0 g.

And the “Body Weight” value ([7]; week 1.5)?
Its value is “*21.3 ± 0.9 g”.

And the “Body Weight” value ([7]; week 2)?
Its value is “*21.4 ± 0.9 g”.

And the “Body Weight” value ([7]; week 2.5)?
Its value is “*21.4 ± 0.9 g”.

And the “Body Weight” value ([7]; week 3)?
The value was “*21.3 ± 0.9 g”.

What about the “Body Weight” value ([7]; week 3.5) of the same molecule?
The value was 21.5 ± 0.9 g.

And the “Body Weight” value ([7]; week 4)?
The value was “*21.5 ± 1.0 g”.

What about the “Organ and Tissue Weights: Brain” value [8, 13] of the same molecule?
Its value is “^#0.46 ± 0.02^ g”.

What about the “Organ and Tissue Weights: Fat (gonadal fat)” value [8, 13] of the same molecule?
The value was “*0.22 ± 0.04 g”.

And the “Organ and Tissue Weights: Heart” value [8, 13]?
The value was 0.14 ± 0.02 g.

And the “Organ and Tissue Weights: Liver” value [8, 13]?
The value was 1.03 ± 0.14 g.

What about the “Organ and Tissue Weights: Lung” value [8, 13] of the same molecule?
The value was 0.18 ± 0.01 g.

What about the “brain weight, in words” value ([8]; end of treatment) of the same molecule?
The value was “slight, but significant increase”.

What about the “heart, liver, or lung weights, in words” value ([8]; end of treatment) of the same molecule?
Its value is “No significant changes”.

And the “gonadal fat weight, in words” value ([8]; relative to the oral vehicle group)?
Its value is “significantly lower”.

And the “Plasma Alanine Amino Transferase Activity” value ([9]; day 28)?
Its value is “*94.0 ± 22.1 U/L”.

What about the “plasma ALAT levels, in words” value ([9]; day 28, compared to respective control group) of the same molecule?
The value was “significantly decreased”.

And the “time of peak plasma OEA levels” value (cynomolgus monkeys; FIG. 2)?
The value was “four”.

What about the “plasma OEA levels, in words” value (cynomolgus monkeys; all time points after the peak (up to 24 hours)) of the same molecule?
Its value is “remained elevated”.

And the “plasma OEA levels, in words” value (cynomolgus monkeys; two hours after administration, FIG. 2)?
Its value is “clearly elevated”.

And the “Plasma Leptin Levels” value ([10]; day 0, four hour fasting)?
Its value is “^#3.9 ± 1.5 ng/ml”.

What about the “Plasma Leptin Levels” value ([10]; day 14, four hour fasting) of the same molecule?
The value was “^#4.5 ± 2.1 ng/ml”.

And the “Plasma Leptin Levels” value ([10]; day 28, four hour fasting)?
Its value is “^#5.1 ± 2.3 ng/ml”.

What about the “plasma leptin levels, in words” value ([10]; relative to the oral vehicle control group) of the same molecule?
Its value is “significantly decreased”.

What about the “IDL/LDL particle size, in words” value [11] of the same molecule?
The value was “slight shift toward larger IDL/LDL particles”.

And the “VLDL fraction of plasma lipoprotein profile, in words” value [11]?
The value was “increase”.

What about the “plasma HB levels, in words” value ([12]; at 28 days, compared to the oral vehicle control group) of the same molecule?
Its value is “significantly lower”.

And the “Plasma Ketone Body (HB) levels” value ([12]; day 0, 4-hour fasting)?
The value was 0.73 ± 0.24 mM.

What about the “Plasma Ketone Body (HB) levels” value ([12]; day 14, 4-hour fasting) of the same molecule?
The value was 0.32 ± 0.11 mM.

And the “Plasma Ketone Body (HB) levels” value ([12]; day 28, 4-hour fasting)?
The value was “^#0.43 ± 0.11^ mM”.
